{
  "source": "ChEMBL document CHEMBL6087456",
  "about": "(J Med Chem, 2025)",
  "key": {"[1]": {"biological_target": "Dihydroorotate dehydrogenase (quinone), mitochondrial (Homo sapiens, UniProt Q02127)", "sequence (Q02127 whole entry, the tested form may be a part)": "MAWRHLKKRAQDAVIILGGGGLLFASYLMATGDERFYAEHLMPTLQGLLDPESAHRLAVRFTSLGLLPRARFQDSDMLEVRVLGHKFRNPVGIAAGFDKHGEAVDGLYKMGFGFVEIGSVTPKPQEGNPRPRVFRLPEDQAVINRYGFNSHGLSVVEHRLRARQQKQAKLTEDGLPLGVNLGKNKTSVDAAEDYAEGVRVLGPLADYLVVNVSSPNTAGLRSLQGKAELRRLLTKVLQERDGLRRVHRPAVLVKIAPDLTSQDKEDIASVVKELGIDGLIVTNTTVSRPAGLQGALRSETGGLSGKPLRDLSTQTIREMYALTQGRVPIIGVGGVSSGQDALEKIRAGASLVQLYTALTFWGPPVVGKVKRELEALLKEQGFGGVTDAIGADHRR", "assay": "Inhibition of C-terminal His6-tagged recombinant human DHODH (29 to 395 residues) N-terminally truncated soluble domain extracted from Escherichia coli phage resistant BL21-DE3 using CoQD/DHA/DCIP as substrates"}, "Plasmodium falciparum [2]": {"tested_on": "Plasmodium falciparum", "assay": "Antiparasitic activity against asexual blood stage Plasmodium falciparum 3D7 incubated for 72 hrs by SYBR Green assay", "type": "functional, organism-based", "conditions": "3D7, 72 h"}, "[3]": {"assay": "Cytotoxicity against human HepG2 cells by Cell Titer Glo assay", "type": "toxicity, cell-based"}, "Plasmodium falciparum [4]": {"tested_on": "Plasmodium falciparum", "assay": "Antiparasitic activity against Plasmodium falciparum 3D7 assessed as parasitic reduction ratio at 10 times EC50 pretreated for 120 hrs followed by compound removal and replacement of media without compound measured after 28 days by cell killing assay", "type": "functional"}, "[5]": {"assay": "Plasma protein binding in rat measured for 6 hrs by rapid equilibrium dialysis", "type": "ADME, cell-free"}, "Albumin": {"biological_target": "Albumin (Homo sapiens, UniProt P02768)", "sequence (P02768 whole entry)": "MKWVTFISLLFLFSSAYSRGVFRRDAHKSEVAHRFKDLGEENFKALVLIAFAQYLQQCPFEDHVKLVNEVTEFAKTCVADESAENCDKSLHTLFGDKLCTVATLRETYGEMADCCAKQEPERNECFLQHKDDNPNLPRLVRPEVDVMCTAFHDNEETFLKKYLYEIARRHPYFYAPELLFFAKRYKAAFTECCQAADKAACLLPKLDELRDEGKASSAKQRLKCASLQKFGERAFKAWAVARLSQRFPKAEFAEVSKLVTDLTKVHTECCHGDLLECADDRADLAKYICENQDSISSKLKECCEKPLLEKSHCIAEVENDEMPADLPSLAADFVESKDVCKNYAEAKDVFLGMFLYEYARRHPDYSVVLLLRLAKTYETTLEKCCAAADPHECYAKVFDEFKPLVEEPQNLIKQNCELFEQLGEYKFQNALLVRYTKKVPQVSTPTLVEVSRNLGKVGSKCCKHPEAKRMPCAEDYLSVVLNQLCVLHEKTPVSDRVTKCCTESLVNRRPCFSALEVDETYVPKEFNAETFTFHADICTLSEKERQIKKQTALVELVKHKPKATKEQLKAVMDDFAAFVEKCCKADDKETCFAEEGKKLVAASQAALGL", "assay": "Protein binding to albumin (unknown origin) in ALBUMAX medium", "type": "ADME", "conditions": "read-out: PB (converted)"}, "[6]": {"assay": "Protein binding in human hepatocytes", "type": "ADME, cell-based, Hepatocyte", "conditions": "read-out: PB (converted)"}, "[7]": {"assay": "Oral absorption in overnight-fasted male Sprague-Dawley rat at 3 mg/kg measured upto 72 hrs by LCMS analysis", "type": "ADME, organism-based", "conditions": "in vivo"}, "[8]": {"assay": "Drug excretion in Sprague-Dawley rat urine at 1 mg/kg, iv", "type": "ADME, organism-based", "conditions": "read-out: Drug excretion"}, "Cytochrome P450 1A2": {"biological_target": "T1, Cytochrome P450 1A2 (Homo sapiens, UniProt P05177)", "T1 sequence (P05177 whole entry)": "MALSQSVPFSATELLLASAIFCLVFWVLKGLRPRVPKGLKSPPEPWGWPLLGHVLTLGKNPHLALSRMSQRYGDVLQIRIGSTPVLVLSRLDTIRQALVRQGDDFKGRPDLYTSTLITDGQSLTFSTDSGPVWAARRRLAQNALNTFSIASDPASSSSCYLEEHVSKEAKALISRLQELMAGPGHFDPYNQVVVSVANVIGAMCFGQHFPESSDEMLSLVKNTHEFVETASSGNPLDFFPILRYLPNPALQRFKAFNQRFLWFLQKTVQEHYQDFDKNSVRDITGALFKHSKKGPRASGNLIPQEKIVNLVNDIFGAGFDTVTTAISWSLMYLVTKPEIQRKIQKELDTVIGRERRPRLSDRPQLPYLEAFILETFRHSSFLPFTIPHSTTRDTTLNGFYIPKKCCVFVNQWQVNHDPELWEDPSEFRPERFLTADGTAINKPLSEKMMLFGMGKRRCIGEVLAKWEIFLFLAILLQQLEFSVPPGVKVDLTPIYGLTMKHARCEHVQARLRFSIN", "assay": "Inhibition of CYP1A2 in human liver microsomes", "type": "ADME, Microsome"}, "Cytochrome P450 2B6": {"biological_target": "T2, Cytochrome P450 2B6 (Homo sapiens, UniProt P20813)", "T2 sequence (P20813 whole entry)": "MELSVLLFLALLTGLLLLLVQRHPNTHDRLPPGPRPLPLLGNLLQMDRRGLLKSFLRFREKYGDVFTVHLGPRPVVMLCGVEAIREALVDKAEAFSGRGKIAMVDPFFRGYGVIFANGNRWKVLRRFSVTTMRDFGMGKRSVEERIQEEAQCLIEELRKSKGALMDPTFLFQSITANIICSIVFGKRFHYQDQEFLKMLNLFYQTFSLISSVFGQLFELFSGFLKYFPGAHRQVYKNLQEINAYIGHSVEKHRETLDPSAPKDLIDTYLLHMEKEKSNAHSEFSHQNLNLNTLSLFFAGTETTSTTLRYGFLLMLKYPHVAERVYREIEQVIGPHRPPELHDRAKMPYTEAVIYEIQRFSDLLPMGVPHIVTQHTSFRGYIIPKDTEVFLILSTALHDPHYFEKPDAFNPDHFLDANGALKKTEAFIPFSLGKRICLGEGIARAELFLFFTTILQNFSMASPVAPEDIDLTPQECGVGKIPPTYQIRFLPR", "assay": "Inhibition of CYP2B6 in human liver microsomes", "type": "ADME, Microsome"}, "Cytochrome P450 2D6": {"biological_target": "Cytochrome P450 2D6 (Homo sapiens, UniProt P10635)", "sequence (P10635 whole entry)": "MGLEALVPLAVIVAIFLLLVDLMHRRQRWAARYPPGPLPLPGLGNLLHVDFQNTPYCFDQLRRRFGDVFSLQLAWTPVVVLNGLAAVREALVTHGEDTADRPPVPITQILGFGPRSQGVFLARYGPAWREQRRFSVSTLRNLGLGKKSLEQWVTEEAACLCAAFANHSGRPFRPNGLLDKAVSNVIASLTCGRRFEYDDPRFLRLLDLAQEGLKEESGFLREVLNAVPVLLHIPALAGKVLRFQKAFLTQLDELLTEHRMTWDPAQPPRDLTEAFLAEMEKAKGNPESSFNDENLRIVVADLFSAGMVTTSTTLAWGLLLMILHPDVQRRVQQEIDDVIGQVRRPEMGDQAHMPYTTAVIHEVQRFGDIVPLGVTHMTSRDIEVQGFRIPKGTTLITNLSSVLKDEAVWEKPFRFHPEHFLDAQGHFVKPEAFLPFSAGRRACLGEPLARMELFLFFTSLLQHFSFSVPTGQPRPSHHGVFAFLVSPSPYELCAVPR", "assay": "Time-dependent inhibition of CYP2D6 in human liver microsomes", "type": "ADME, Microsome"}, "Cytochrome P450 2C8": {"biological_target": "T3, Cytochrome P450 2C8 (Homo sapiens, UniProt P10632)", "T3 sequence (P10632 whole entry)": "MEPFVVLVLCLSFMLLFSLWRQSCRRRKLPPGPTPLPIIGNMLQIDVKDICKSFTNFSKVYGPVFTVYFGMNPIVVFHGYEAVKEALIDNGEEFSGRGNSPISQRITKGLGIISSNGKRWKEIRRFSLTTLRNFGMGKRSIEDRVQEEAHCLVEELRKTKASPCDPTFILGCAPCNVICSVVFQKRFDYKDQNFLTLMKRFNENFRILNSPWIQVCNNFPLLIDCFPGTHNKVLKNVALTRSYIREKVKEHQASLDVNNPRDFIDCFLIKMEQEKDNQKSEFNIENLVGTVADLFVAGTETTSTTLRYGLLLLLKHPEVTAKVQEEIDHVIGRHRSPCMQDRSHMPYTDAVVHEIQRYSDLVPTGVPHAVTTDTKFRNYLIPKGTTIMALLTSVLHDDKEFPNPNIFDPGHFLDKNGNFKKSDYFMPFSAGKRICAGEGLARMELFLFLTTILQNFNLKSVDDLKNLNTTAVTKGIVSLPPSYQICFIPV", "assay": "Time-dependent inhibition of CYP2C8 in human liver microsomes", "type": "ADME, Microsome"}, "Cytochrome P450 3A5": {"biological_target": "Cytochrome P450 3A5 (Homo sapiens, UniProt P20815)", "sequence (P20815 whole entry)": "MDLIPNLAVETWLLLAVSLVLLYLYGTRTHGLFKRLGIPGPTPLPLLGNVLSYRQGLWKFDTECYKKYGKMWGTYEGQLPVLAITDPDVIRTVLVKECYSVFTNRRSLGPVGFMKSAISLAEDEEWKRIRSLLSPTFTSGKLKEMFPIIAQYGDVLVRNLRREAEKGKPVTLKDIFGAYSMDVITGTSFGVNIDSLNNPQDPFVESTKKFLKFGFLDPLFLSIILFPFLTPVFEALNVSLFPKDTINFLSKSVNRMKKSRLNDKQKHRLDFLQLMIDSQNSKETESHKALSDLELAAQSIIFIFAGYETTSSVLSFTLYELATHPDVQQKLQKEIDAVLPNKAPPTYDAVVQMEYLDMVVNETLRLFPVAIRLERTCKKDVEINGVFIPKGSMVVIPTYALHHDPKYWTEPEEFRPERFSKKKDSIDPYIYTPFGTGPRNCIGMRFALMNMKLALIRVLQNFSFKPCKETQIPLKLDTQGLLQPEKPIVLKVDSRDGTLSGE", "assay": "Time-dependent inhibition of CYP3A5 in human liver microsomes", "type": "ADME, Microsome"}, "[9]": {"biological_target": "Prostaglandin G/H synthase 1 (Homo sapiens) (UniProt P23219)", "sequence (P23219 whole entry)": "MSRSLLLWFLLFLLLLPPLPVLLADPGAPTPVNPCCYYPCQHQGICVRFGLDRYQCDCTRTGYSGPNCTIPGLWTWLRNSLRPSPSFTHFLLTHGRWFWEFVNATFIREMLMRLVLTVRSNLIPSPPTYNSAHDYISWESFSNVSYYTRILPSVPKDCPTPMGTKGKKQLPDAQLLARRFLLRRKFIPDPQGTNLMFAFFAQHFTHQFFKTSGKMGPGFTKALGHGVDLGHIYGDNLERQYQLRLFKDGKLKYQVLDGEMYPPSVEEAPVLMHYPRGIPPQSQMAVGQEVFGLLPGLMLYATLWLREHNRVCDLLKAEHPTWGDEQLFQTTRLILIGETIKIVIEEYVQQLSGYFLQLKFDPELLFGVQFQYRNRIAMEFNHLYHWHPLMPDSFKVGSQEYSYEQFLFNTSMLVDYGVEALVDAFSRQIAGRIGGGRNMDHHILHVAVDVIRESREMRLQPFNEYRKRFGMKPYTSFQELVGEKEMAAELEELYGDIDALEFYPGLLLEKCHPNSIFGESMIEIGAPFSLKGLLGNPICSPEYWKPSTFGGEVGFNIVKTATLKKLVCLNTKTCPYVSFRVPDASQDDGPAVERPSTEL", "assay": "Inhibition of COX1 (unknown origin) at 10 uM relative to control"}, "[10]": {"assay": "Toxicity in humanized SCID mouse model infected with erythrocyte asexual stage Plasmodium falciparum 3D7 0087/N9 assessed as drug tolerance at 1 to 30 mg/kg administered once daily for 6 days", "type": "organism-based", "conditions": "in vivo, dose 1-30 mg/kg, time 6 day"}, "Plasmodium falciparum [11]": {"tested_on": "Plasmodium falciparum", "assay": "Antimalarial activity against erythrocyte asexual stage Plasmodium falciparum 3D7 0087/N9 infected in humanized SCID mouse model assessed as inhibition of maturation of trophozoites to schizonts at first life cycle at 1 to 30 mg/kg administered once daily measured after 48 hrs", "type": "functional, organism-based", "conditions": "dose 1-30 mg/kg"}, "Plasmodium falciparum [12]": {"tested_on": "Plasmodium falciparum", "assay": "Prevention of terminal maturation of schizonts in humanized SCID mouse model infected with erythrocyte asexual stage Plasmodium falciparum 3D7 0087/N9 at 1 to 30 mg/kg administered once daily for 6 days", "type": "functional, organism-based", "conditions": "dose 1-30 mg/kg, time 6.0 day"}, "Plasmodium falciparum [13]": {"tested_on": "Plasmodium falciparum", "assay": "Prevention of re-infection of new erythrocytes in humanized SCID mouse model infected with erythrocyte asexual stage Plasmodium falciparum 3D7 0087/N9 at 1 to 30 mg/kg administered once daily for 6 days", "type": "functional, organism-based", "conditions": "dose 1-30 mg/kg, time 6.0 day"}, "Plasmodium falciparum [14]": {"tested_on": "Plasmodium falciparum", "assay": "Antimalarial activity against erythrocyte asexual stage Plasmodium falciparum 3D7 0087/N9 infected in humanized SCID mouse model assessed as elimination of trophozoites at second life cycle at 1 to 30 mg/kg administered once daily measured for 48 to 96 hrs", "type": "functional, organism-based", "conditions": "dose 1-30 mg/kg, time lower […], time upper […]"}, "Plasmodium falciparum [15]": {"tested_on": "Plasmodium falciparum", "assay": "Prevention of pyknosis of rings in humanized SCID mouse model infected with erythrocyte asexual stage Plasmodium falciparum 3D7 0087/N9 at 1 to 30 mg/kg administered once daily for 6 days measured after 96 to […] post-dose", "type": "functional, organism-based", "conditions": "dose 1-30 mg/kg, time 6.0 day"}},
  "note": "Calls of active or inactive are those of the source. No cut-off for these calls is given here.",
  "data": [
    {"smiles": "Cn1nc2c(=O)n(C3CC3)cnc2c1[C@](O)(c1cnc(C(F)(F)F)c(Cl)c1)C(F)(F)F", "values": [
      {"measurement": "IC50", "setting": "[1]", "result": "> 30", "unit": "µM"},
      {"measurement": "EC50", "setting": "Plasmodium falciparum [2]", "result": 0.001, "unit": "µM"},
      {"measurement": "CC50", "setting": "[3]", "result": "> 20", "unit": "µM"},
      {"measurement": "log(activity)", "setting": "Plasmodium falciparum [4]", "result": 2.9},
      {"measurement": "PPB", "setting": "[5]", "result": 97.2, "unit": "%"},
      {"measurement": "fraction unbound", "setting": "Albumin", "result": 0.514},
      {"measurement": "fraction unbound", "setting": "[6]", "result": 0.535},
      {"measurement": "Fa at 72 h", "setting": "[7]", "result": 100, "unit": "%"},
      {"measurement": "dose excreted", "setting": "[8]", "result": "< 1", "unit": "%"},
      {"measurement": "IC50", "setting": "Cytochrome P450 1A2", "result": "> 20", "unit": "µM"},
      {"measurement": "IC50", "setting": "Cytochrome P450 2B6", "result": "> 20", "unit": "µM"},
      {"measurement": "TDI", "setting": "Cytochrome P450 2D6", "result": "Not_active"},
      {"measurement": "TDI", "setting": "Cytochrome P450 2C8", "result": "Not_active"},
      {"measurement": "TDI", "setting": "Cytochrome P450 3A5", "result": "Not_active"},
      {"measurement": "inhibition", "setting": "[9]", "result": 50, "unit": "%"},
      {"measurement": "Activity", "setting": "[10]", "result": "Non-toxic"},
      {"measurement": "Activity", "setting": "Plasmodium falciparum [11]", "result": "Active"},
      {"measurement": "Activity", "setting": "Plasmodium falciparum [12]", "result": "inactive"},
      {"measurement": "Activity", "setting": "Plasmodium falciparum [13]", "result": "inactive"},
      {"measurement": "Activity", "setting": "Plasmodium falciparum [14]", "result": "Active"},
      {"measurement": "Activity", "setting": "Plasmodium falciparum [15]", "result": "inactive"}
    ]}
  ]
}
